What was measured:
SIRT1 [1] = target: T1, SIRT1 (Homo sapiens, UniProt Q96EB6); assay: TAMRA based mass spectrometry assay of SIRT1 deacetylase activation; type: biochemical; details: TAMRA peptide substrate; for TAMRA EC1.5 (μM): concentration that results in 150% activation of SIRT1; for TAMRA % Fold Act: percent maximum fold activation relative to control (100%)
T1 sequence (Q96EB6 1-747): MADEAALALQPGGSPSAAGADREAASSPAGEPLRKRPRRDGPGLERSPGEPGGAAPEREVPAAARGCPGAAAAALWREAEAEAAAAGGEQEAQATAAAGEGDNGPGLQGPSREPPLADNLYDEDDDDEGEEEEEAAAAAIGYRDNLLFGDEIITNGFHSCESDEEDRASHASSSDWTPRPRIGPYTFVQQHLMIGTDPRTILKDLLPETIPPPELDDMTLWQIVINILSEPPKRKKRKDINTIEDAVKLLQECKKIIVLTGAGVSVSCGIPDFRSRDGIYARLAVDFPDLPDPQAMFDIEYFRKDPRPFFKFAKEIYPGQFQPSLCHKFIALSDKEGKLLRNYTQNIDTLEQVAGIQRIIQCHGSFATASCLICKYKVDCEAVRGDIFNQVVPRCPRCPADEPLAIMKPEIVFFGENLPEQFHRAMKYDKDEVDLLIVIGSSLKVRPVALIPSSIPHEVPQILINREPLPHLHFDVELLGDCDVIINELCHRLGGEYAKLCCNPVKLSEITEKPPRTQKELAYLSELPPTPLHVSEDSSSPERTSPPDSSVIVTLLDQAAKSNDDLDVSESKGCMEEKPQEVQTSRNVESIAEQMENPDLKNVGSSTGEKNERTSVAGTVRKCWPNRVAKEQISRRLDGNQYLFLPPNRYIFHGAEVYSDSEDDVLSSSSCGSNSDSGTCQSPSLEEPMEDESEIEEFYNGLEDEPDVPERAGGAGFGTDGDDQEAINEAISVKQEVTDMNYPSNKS
From the text: (§1) Mass spectrometry based assays were used to identify modulators of SIRT1 activity. The TAMRA based assay utilized a peptide having 20 amino acid residues as follows: Ac-EE-K(biotin)-GQSTSSHSK(Ac)NleSTEG-K(5TMR)-EE-NH2 (SEQ ID NO: 1), wherein K(Ac) is an acetylated lysine residue and Nle is a norleucine. The peptide was labeled with the fluorophore 5TMR (excitation 540 nm/emission 580 nm) at the C-terminus. The sequence of the peptide substrate was based on p53 with several modifications. In addition, the methionine residue naturally present in the sequence was replaced with the norleucine because the methionine may be susceptible to oxidation during synthesis and purification. The Trp based assay utilized a peptide having an amino acid residues as follows: Ac-R-H-K-K(Ac)-W-NH2 (SEQ ID NO: 2).
The TAMRA based mass spectrometry assay was conducted as follows: 0.5 μM peptide substrate and 120 μM βNAD^+ was incubated with 10 nM SIRT1 for 25 minutes at 25° C. in a reaction buffer (50 mM Tris-acetate pH 8, 137 mM NaCl, 2.7 mM KCl, 1 mM MgCl2, 5 mM DTT, 0.05% BSA). The SIRT1 protein was obtained by cloning the SirT1 gene into a T7-promoter containing vector, which was then transformed and expressed in BL21(DE3) bacterial cells. Test compound was added at varying concentrations to this reaction mixture and the resulting reactions were monitored. After the 25 minute incubation with SIRT1, 10 μL of 10% formic acid was added to stop the reaction. The resulting reactions were sealed and frozen for later mass spec analysis. Determination of the amount of deacetylated substrate peptide formed (or, alternatively, the amount of O-acetyl-ADP-ribose (OAADPR) generated) by the sirtuin-mediated NAD-dependent deacetylation reaction allowed for the precise measurement of relative SIRT1 activity in the presence of varying concentrations of the test compound versus control reactions lacking the test compound.
(§2) A control for inhibition of sirtuin activity was conducted by adding 1 μL of 500 mM nicotinamide as a negative control at the start of the reaction (e.g., permits determination of maximum sirtuin inhibition). A control for activation of sirtuin activity was conducted using 10 nM of sirtuin protein, with 1 μL of DMSO in place of compound, to determine the amount of deacetylation of the substrate at a given time point within the linear range of the assay. This time point was the same as that used for test compounds and, within the linear range, the endpoint represents a change in velocity. For the above assay, SIRT1 protein was expressed and purified as follows. The SirT1 gene was cloned into a T7-promoter containing vector and transformed into BL21(DE3). The protein was expressed by induction with 1 mM IPTG as an N-terminal His-tag fusion protein at 18° C. overnight and harvested at 30,000×g. Cells were lysed with lysozyme in lysis buffer (50 mM Tris-HCl, 2 mM Tris[2-carboxyethyl] phosphine (TCEP), 10 μM ZnCl2, 200 mM NaCl) and further treated with sonication for 10 min for complete lysis. The protein was purified over a Ni-NTA column (Amersham) and fractions containing pure protein were pooled, concentrated and run over a sizing column (Sephadex S200 26/60 global). The peak containing soluble protein was collected and run on an Ion-exchange column (MonoQ). Gradient elution (200 mM-500 mM NaCl) yielded pure protein. This protein was concentrated and dialyzed against dialysis buffer (20 mM Tris-HCl, 2 mM TCEP) overnight. The protein was aliquoted and frozen at −80° C. until further use.
Sirtuin-modulating compounds of Formula (I) that activated SIRT1 were identified using the assay described above and are shown below in Table 1. The EC1.5 values represent the concentration of test compounds that result in 150% activation of SIRT1. The EC1.5 values for the activating compounds of Formula (I) are represented by A (EC1.5<1 μM), B (EC1.5 1−25 μM), C (EC1.5>25 μM). […]

SIRT1 [2] = target: T1, SIRT1; assay: Trp mass spectrometry assay of SIRT1 deacetylase activation; type: biochemical; details: Trp peptide substrate; for TRP EC1.5 (μM): concentration that results in 150% activation of SIRT1; for TRP % Fold Act: percent maximum fold activation relative to control (100%)
From the text: as §1
The Trp mass spectrometry assay was conducted as follows. 0.5 μM peptide substrate and 120 μM βNAD^+ were incubated with 10 nM SIRT1 for 25 minutes at 25° C. in a reaction buffer (50 mM HEPES pH 7.5, […], 1 mM DTT, 0.05% BSA). The SIRT1 protein was obtained by cloning the SirT1 gene into a T7-promoter containing vector, which was then expressed in BL21(DE3) bacterial cells and purified as described in further detail below. Test compound was added at varying concentrations to this reaction mixture and the resulting reactions were monitored. After the 25 minute incubation with SIRT1, 10 μL of 10% formic acid was added to stop the reaction. The resulting reactions were sealed and frozen for later mass spec analysis. The relative SIRT1 activity was then determined by measuring the amount of O-acetyl-ADP-ribose (OAADPR) formed (or, alternatively, the amount of deacetylated Trp peptide generated) by the NAD-dependent sirtuin deacetylation reaction in the presence of varying concentrations of the test compound versus control reactions lacking the test compound. The degree to which the test agent activated deacetylation by SIRT1 was expressed as EC1.5 (i.e., the concentration of compound required to increase SIRT1 activity by 50% over the control lacking test compound), and Percent Maximum Activation (i.e., the maximum activity relative to control (100%) obtained for the test compound).
as §2
Sirtuin-modulating compounds of Formula (I) that activated SIRT1 were identified using the assay described above and are shown below in Table 1. […]

TAMRA EC1.5 (μM) (SIRT1 [1]) | TAMRA % Fold Act (SIRT1 [1]) | TRP EC1.5 (μM) (SIRT1 [2]) | TRP % Fold Act (SIRT1 [2]) | SMILES
B (EC1.5 1−25 μM) | B (Fold Activation<350%) | C (EC1.5>25 μM) | B (Fold Activation<350%) | O=C(Nc1ccccn1)c1cc(N2CCOCC2)nn2cc(-c3ccccc3C(F)(F)F)nc12 [Compound 44]
B (EC1.5 1−25 μM) | A (Fold activation≧350%) | B (EC1.5 1−25 μM) | B (Fold Activation<350%) | O=C(Nc1cccnc1)c1cc(N2CCOCC2)nn2cc(-c3ccccc3C(F)(F)F)nc12 [Compound 45]
A (EC1.5<1 μM) | A (Fold activation≧350%) | C (EC1.5>25 μM) | B (Fold Activation<350%) | O=C(Nc1ccncc1)c1cc(N2CCOCC2)nn2cc(-c3ccccc3C(F)(F)F)nc12 [Compound 46]
C (EC1.5>25 μM) | B (Fold Activation<350%) | C (EC1.5>25 μM) | B (Fold Activation<350%) | O=C(Nc1nccs1)c1cc(N2CCOCC2)nn2cc(-c3cccc(C(F)(F)F)c3)nc12 [Compound 47]
C (EC1.5>25 μM) | B (Fold Activation<350%) | C (EC1.5>25 μM) | B (Fold Activation<350%) | Cc1cnc(NC(=O)c2cc(N3CCOCC3)nn3cc(-c4cccc(C(F)(F)F)c4)nc23)s1 [Compound 48]
C (EC1.5>25 μM) | B (Fold Activation<350%) | C (EC1.5>25 μM) | B (Fold Activation<350%) | O=C(Nc1ccccn1)c1cc(N2CCOCC2)nn2cc(-c3cccc(C(F)(F)F)c3)nc12 [Compound 49]
C (EC1.5>25 μM) | B (Fold Activation<350%) | C (EC1.5>25 μM) | B (Fold Activation<350%) | O=C(Nc1ccncc1)c1cc(N2CCOCC2)nn2cc(-c3cccc(Cl)c3)nc12 [Compound 54]
B (EC1.5 1−25 μM) | A (Fold activation≧350%) | C (EC1.5>25 μM) | B (Fold Activation<350%) | O=C(Nc1ccnc2cc(-c3ccccc3C(F)(F)F)nn12)c1cscn1 [Compound 55]
A (EC1.5<1 μM) | A (Fold activation≧350%) | C (EC1.5>25 μM) | B (Fold Activation<350%) | Cc1nc(C(=O)Nc2ccnc3cc(-c4ccccc4C(F)(F)F)nn23)cs1 [Compound 56]
A (EC1.5<1 μM) | A (Fold activation≧350%) | B (EC1.5 1−25 μM) | B (Fold Activation<350%) | Cc1nc(C(=O)Nc2ccnc3cc(-c4ccccc4C(F)(F)F)nn23)c(C)s1 [Compound 57]
C (EC1.5>25 μM) | B (Fold Activation<350%) | C (EC1.5>25 μM) | B (Fold Activation<350%) | Cc1cnc(C(=O)Nc2ccnc3cc(-c4ccccc4C(F)(F)F)nn23)s1 [Compound 58]
A (EC1.5<1 μM) | A (Fold activation≧350%) | B (EC1.5 1−25 μM) | B (Fold Activation<350%) | O=C(Nc1ccnc2cc(-c3ccccc3C(F)(F)F)nn12)c1ccccn1 [Compound 59]
A (EC1.5<1 μM) | A (Fold activation≧350%) | B (EC1.5 1−25 μM) | B (Fold Activation<350%) | O=C(Nc1ccnc2cc(-c3ccccc3C(F)(F)F)nn12)c1ncccn1 [Compound 60]
A (EC1.5<1 μM) | A (Fold activation≧350%) | C (EC1.5>25 μM) | B (Fold Activation<350%) | O=C(Nc1ccnc2cc(-c3ccccc3C(F)(F)F)nn12)c1cnccn1 [Compound 61]
B (EC1.5 1−25 μM) | B (Fold Activation<350%) | C (EC1.5>25 μM) | B (Fold Activation<350%) | O=C(Nc1ccnc2cc(-c3ccccc3C(F)(F)F)nn12)c1ccncn1 [Compound 62]
A (EC1.5<1 μM) | B (Fold Activation<350%) | C (EC1.5>25 μM) | B (Fold Activation<350%) | O=C(Nc1ccnc2cc(-c3ccccc3C(F)(F)F)nn12)c1cccc(N2CCOCC2)n1 [Compound 63]
A (EC1.5<1 μM) | B (Fold Activation<350%) | C (EC1.5>25 μM) | B (Fold Activation<350%) | O=C(Nc1ccnc2cc(-c3ccccc3C(F)(F)F)nn12)c1cccc(N2CCC2)n1 [Compound 64]
A (EC1.5<1 μM) | A (Fold activation≧350%) | A (EC1.5<1 μM) | A (Fold activation≧350%) | O=C(Nc1ccnc2cc(-c3ccccc3C(F)(F)F)nn12)c1cccc(OCC(O)CO)n1 (stereo not drawn) [Compound 65]

From US20140288052A1, “SUBSTITUTED BICYCLIC AZA-HETEROCYCLES AND ANALOGUES AS SIRTUIN MODULATORS” (GlaxoSmithKline, LLC, priority 2011, published 2014)
